Assay results: PubChem BioAssay (NCI)
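Tested at 5 concentrations; 48 h exposure; 96-well plates; endpoints linearly interpolated, else capped at highest concentration. GI50 marks 50% less growth. Definition used: TGI = concentration required for complete inhibition of growth.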

How the values were obtained:
Assay in all cases: inhibition of tumour cell growth, NCI panel, 48 h
RPMI-8226 leukemia = system: RPMI-8226 leukemia
OVCAR-3 ovarian = system: OVCAR-3 ovarian
SK-MEL-5 melanoma = system: SK-MEL-5 melanoma
EKVX NSCLC = system: EKVX NSCLC
NCI-H226 lung = system: NCI-H226 lung
RXF 393 renal = system: RXF 393 renal
UO-31 renal = system: UO-31 renal
NCI/ADR-RES ovarian = system: NCI/ADR-RES ovarian
DU-145 prostate = system: DU-145 prostate
TK-10 renal = system: TK-10 renal
MALME-3M melanoma = system: MALME-3M melanoma
KM12 colon = system: KM12 colon
HS 578T breast = system: HS 578T breast
MDA-MB-435 = system: MDA-MB-435
CCRF-CEM leukemia = system: CCRF-CEM leukemia
SF-539 CNS = system: SF-539 CNS
SN12C renal = system: SN12C renal
CAKI-1 renal = system: CAKI-1 renal
MOLT-4 leukemia = system: MOLT-4 leukemia
HCT-15 colon = system: HCT-15 colon
SF-268 CNS = system: SF-268 CNS
PC-3 prostate = system: PC-3 prostate
SNB-19 CNS = system: SNB-19 CNS
IGROV1 ovarian = system: IGROV1 ovarian
COLO 205 colon = system: COLO 205 colon
ACHN renal = system: ACHN renal
T-47D breast = system: T-47D breast
A549 NSCLC = system: A549 NSCLC
MCF7 breast = system: MCF7 breast
NCI-H23 lung = system: NCI-H23 lung
786-0 renal = system: 786-0 renal
SNB-75 CNS = system: SNB-75 CNS
UACC-257 melanoma = system: UACC-257 melanoma
SW-620 colon = system: SW-620 colon
A498 renal = system: A498 renal
OVCAR-4 ovarian = system: OVCAR-4 ovarian
U251 CNS = system: U251 CNS
K-562 leukemia = system: K-562 leukemia
HL-60(TB) leukemia = system: HL-60(TB) leukemia
HT29 colon = system: HT29 colon
SF-295 CNS = system: SF-295 CNS
MDA-MB-231 breast = system: MDA-MB-231 breast
OVCAR-5 ovarian = system: OVCAR-5 ovarian
HCC-2998 colon = system: HCC-2998 colon
HOP-92 NSCLC = system: HOP-92 NSCLC
BT-549 breast = system: BT-549 breast
SR leukemia = system: SR leukemia
OVCAR-8 ovarian = system: OVCAR-8 ovarian
HCT-116 colon = system: HCT-116 colon
SK-MEL-2 melanoma = system: SK-MEL-2 melanoma
SK-MEL-28 melanoma = system: SK-MEL-28 melanoma
HOP-62 NSCLC = system: HOP-62 NSCLC
M14 melanoma = system: M14 melanoma
UACC-62 melanoma = system: UACC-62 melanoma
NCI-H460 lung = system: NCI-H460 lung
MDA-MB-468 breast = system: MDA-MB-468 breast
SK-OV-3 ovarian = system: SK-OV-3 ovarian

## Nc1cc(-c2c[nH]c3ccc(F)cc23)nc2cc(-c3c[nH]c4ccccc34)nn12
RPMI-8226 leukemia
  GI50: 2.64 µM
  TGI: 8.15 µM
OVCAR-3 ovarian
  GI50: 4.17 µM
  TGI: 16.9 µM
SK-MEL-5 melanoma
  GI50: 3.79 µM
  TGI: 13.6 µM
EKVX NSCLC
  GI50: 3.49 µM
  TGI: 14.9 µM
NCI-H226 lung
  GI50: 5.57 µM
  TGI: 32.6 µM
RXF 393 renal
  GI50: 2.19 µM
  TGI: 7.82 µM
UO-31 renal
  GI50: 3.02 µM
  TGI: 12.7 µM
NCI/ADR-RES ovarian
  GI50: 3.82 µM
  TGI: 19.3 µM
DU-145 prostate
  GI50: 4.3 µM
  TGI: 15.3 µM
TK-10 renal
  GI50: 5.54 µM
  TGI: 19.9 µM
MALME-3M melanoma
  GI50: 2.24 µM
  TGI: 4.79 µM
KM12 colon
  GI50: 2.35 µM
  TGI: 5.79 µM
HS 578T breast
  GI50: 3.73 µM
  TGI: 20.5 µM
MDA-MB-435
  GI50: 3.67 µM
  TGI: 15.2 µM
CCRF-CEM leukemia
  GI50: 2.65 µM
  TGI: 8.01 µM
SF-539 CNS
  GI50: 2 µM
  TGI: 4.01 µM
SN12C renal
  GI50: 6.94 µM
  TGI: 21.7 µM
CAKI-1 renal
  GI50: 2.74 µM
  TGI: 12.4 µM
MOLT-4 leukemia
  GI50: 2.44 µM
  TGI: 6.87 µM
HCT-15 colon
  GI50: 1.71 µM
  TGI: 3.69 µM
SF-268 CNS
  GI50: 4.15 µM
  TGI: 21.7 µM
PC-3 prostate
  GI50: 3.18 µM
  TGI: 12.2 µM
SNB-19 CNS
  GI50: 4.59 µM
  TGI: 18.9 µM
IGROV1 ovarian
  GI50: 4.26 µM
  TGI: 17.6 µM
COLO 205 colon
  GI50: 1.6 µM
  TGI: 3.2 µM
ACHN renal
  GI50: 3.22 µM
  TGI: 10.9 µM
T-47D breast
  GI50: 3.54 µM
  TGI: 20.9 µM
A549 NSCLC
  GI50: 3.81 µM
  TGI: 20.5 µM
MCF7 breast
  GI50: 2.54 µM
  TGI: 8.12 µM
NCI-H23 lung
  GI50: 3.8 µM
  TGI: 17.7 µM
786-0 renal
  GI50: 1.49 µM
  TGI: 2.93 µM
SNB-75 CNS
  GI50: 2.88 µM
  TGI: 14.6 µM
UACC-257 melanoma
  GI50: 4.28 µM
  TGI: 15.2 µM
SW-620 colon
  GI50: 2.11 µM
  TGI: 4.22 µM
A498 renal
  GI50: 2.8 µM
  TGI: 11.3 µM
OVCAR-4 ovarian
  GI50: 4.2 µM
  TGI: 18.9 µM
U251 CNS
  GI50: 3.53 µM
  TGI: 14.1 µM
K-562 leukemia
  GI50: 2.15 µM
  TGI: 6.12 µM
HL-60(TB) leukemia
  GI50: 2.18 µM
  TGI: 9.55 µM
HT29 colon
  GI50: 2.09 µM
  TGI: 4.72 µM
SF-295 CNS
  GI50: 1.86 µM
  TGI: 4.04 µM
MDA-MB-231 breast
  GI50: 2 µM
  TGI: 3.84 µM
OVCAR-5 ovarian
  GI50: 3.3 µM
  TGI: 11.1 µM
HCC-2998 colon
  GI50: 2.02 µM
  TGI: 4.14 µM
HOP-92 NSCLC
  GI50: 2.42 µM
  TGI: 7.09 µM
BT-549 breast
  GI50: 8.6 µM
  TGI: 20.8 µM
SR leukemia
  GI50: 2.09 µM
  TGI: 8.42 µM
OVCAR-8 ovarian
  GI50: 4.3 µM
  TGI: 26.7 µM
HCT-116 colon
  GI50: 1.91 µM
  TGI: 4.1 µM
SK-MEL-2 melanoma
  GI50: 3.96 µM
  TGI: 15.1 µM
SK-MEL-28 melanoma
  GI50: 2.96 µM
  TGI: 9.82 µM
HOP-62 NSCLC
  GI50: 4.55 µM
  TGI: 21.8 µM
M14 melanoma
  GI50: 1.98 µM
  TGI: 4.21 µM
UACC-62 melanoma
  GI50: 6.03 µM
  TGI: 19.3 µM
NCI-H460 lung
  GI50: 2.27 µM
  TGI: 5.37 µM
MDA-MB-468 breast
  GI50: 1.7 µM
  TGI: 4.3 µM
SK-OV-3 ovarian
  GI50: 10.1 µM
  TGI: 23 µM
